Patent US5968959A, “Method for the prevention and treatment of stunned myocardium” (Orion Corporation, priority 1998, dated 1999)
“Also recorded” adds a separate entry of the source. Values belong to the molecule of their own block, whether it stands above or below them.

Assays:
[1] = biological target: T1, SR Ca2+-ATPase in fast skeletal muscle SR vesicles (Cavia porcellus, UniProt H0UXI0); assay: Calcium uptake assay (fluo-3), fast skeletal muscle (psoas m.) SR vesicles, which lack phospholamban; type: biochemical, guinea pig; details: for activation at 100 µM: compound 100 μM
T1 construct: Their hearts or the psoas muscles were excised; from tissue; host or cells: guinea pig psoas muscle, SR vesicles
T1 sequence (H0UXI0 entry or part of it limits assumed): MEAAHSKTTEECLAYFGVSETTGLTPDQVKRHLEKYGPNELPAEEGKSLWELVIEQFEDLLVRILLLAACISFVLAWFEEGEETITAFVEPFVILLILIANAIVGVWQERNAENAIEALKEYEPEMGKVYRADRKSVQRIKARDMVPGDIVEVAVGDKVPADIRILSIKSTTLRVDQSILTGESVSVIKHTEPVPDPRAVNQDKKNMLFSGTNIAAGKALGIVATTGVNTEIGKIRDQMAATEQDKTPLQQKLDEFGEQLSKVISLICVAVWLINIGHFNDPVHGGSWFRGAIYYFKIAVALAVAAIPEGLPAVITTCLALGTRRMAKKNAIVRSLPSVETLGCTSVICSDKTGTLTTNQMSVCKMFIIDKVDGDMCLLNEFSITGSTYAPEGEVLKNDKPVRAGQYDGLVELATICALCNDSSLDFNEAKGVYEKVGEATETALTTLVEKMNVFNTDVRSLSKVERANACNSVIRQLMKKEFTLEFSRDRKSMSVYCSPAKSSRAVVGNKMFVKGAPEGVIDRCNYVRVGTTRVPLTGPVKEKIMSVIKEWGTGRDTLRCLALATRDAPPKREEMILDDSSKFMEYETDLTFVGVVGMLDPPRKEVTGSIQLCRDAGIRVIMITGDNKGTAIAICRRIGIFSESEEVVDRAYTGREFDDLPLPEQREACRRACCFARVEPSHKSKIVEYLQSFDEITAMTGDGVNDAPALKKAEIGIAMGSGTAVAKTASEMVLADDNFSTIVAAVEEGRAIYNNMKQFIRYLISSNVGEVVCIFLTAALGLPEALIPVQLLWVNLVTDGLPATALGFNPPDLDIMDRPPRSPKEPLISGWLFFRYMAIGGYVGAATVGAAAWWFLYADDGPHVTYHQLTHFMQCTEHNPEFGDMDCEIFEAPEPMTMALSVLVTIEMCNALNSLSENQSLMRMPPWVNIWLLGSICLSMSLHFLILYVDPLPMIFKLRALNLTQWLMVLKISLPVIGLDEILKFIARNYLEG
Protocol: (§1) Preparation of the SR-vesicles
(§2) Guinea pigs (10-12) were decapited. Their hearts or the psoas muscles were excised, washed in ice-cold 0.9% NaCl and cut into pieces in a buffer containing 20 mM Tris-maleate, 0.3 M sucrose, pH 7.0. Thereafter tissue pieces were homogenized with Polytron and further with Potter (10 strokes). The homogenate was centrifugated at 1000 g for 15 min at 4° C. The supernatant was collected and the pellet was resuspended into 5 ml of the buffer (20 mM Tris-maleate, 0.3 M sucrose, pH 7.0) and recentrifugated at 1000 g for 10 min at 4° C. The obtained supernatant was combined with the earlier collected supernatant and centrifugated once again at 10 000 g for 20 min at 4° C. The final supernatant was filtered into a bottle equipped with a magnetic stirrer. KCl was added to the filtered supernatant to achieve the final concentration of 0.6 M (at 4° C.). The obtained solution was centrifugated at 100 000 g for 60 min at 4° C. The pellet was suspended in 5 ml of the buffer containing 20 mM Tris-maleate, 0.3 M sucrose, pH 7.0 and centrifugated at 100 000 g for 60 min at 4° C. The obtained pellet was suspended in 5 ml of buffer containing 20 mM Tris-maleate, 0.3 M sucrose, 0.1 M KCl, pH 7.0 and stored at -80° C. until use. The protein concentration was also measured in order to standardise the separately prepared vesicle preparations.
(§3) In the calcium uptake assay, the fluorescent indicator, fluo-3 was used to detect the decrease of the extravesicular Ca^2+ -concentration, when the SR Ca^2+ ATPase was transferring Ca^2+ from the extravesicular space into the SR-vesicles.
(§4) The SR-vesicles obtained above (50 μg protein/ml) were pre-incubated with or without the test compound at 37° C. for 5 min in the assay buffer containing 40 mM imidazole, 95 mM KCl, 5 mM NaN3, 5 mM MgCl2, 0.5 mM EGTA, 5 mM potassium oxalate, 2 μM ruthenium red, 5 μM fluo-3, pH 7.0. The free calcium was adjusted to 0.1 μM or to 0.04 μM by CaCl2. The reaction was initiated by adding ATP (5 mM). The final reaction volume was 1.5 ml. The fluorescence of reaction mixture was measured for 3 min by using the excitation and emission wavelengths of 510 nm and 530 nm, respectively.
(§5) The experiments were carried out at 0.1 μM and 0.04 μM free calcium concentrations, respectively.

[2] = system: PLB[1-36 a.a.](Ser16PO3-, Thr17PO3-); assay: Circular dichroism (CD) spectroscopy, binding to double phosphorylated phospholamban fragment; set-up: species or system human; details: double phosphorylated peptide; FIG. 2
Protocol: (§6) Both the 36 amino acid N-terminal fragment of human phospholamban (PLB [1-36 a.a.]) and the 36 amino acid N-terminal fragment of double phosphorylated human phospholamban (PLB [1-36 a.a.](Ser16PO3 -, Thr17PO3 -)) were obtained by peptide synthesis. The peptides were purified by reverse phase HPLC, analysed for homogenity by mass spectrometry and were found pure at 97%. The peptides were lyophilized and then resuspended in water at the final concentration of 0.1 mM, for CD analysis. The pH of both solutions was between 3 and 4 and was not further adjusted. Compound of Example 1c was solved in water at a final concentration of 0.1 mM. The pH was adjusted at 7.2 by adding 1 N NaOH.
(§7) Circular dichroism spectra were acquired at 24° C. on samples of 100 μl. The spectra were recorded on a Jasco J-720 spectropolarimeter using a 1 mm path-length quartz cuvette. The band width was 1 nm, the sensitivity 20 mdeg, the step resolution 0.5 nm, the response time 0.5 sec, and the scan speed 20 nm/min (from 250 to 190 nm). The spectra were expressed in [θ]×10^-3 ×degrees×cm^2 ×dmol^-1.

[3] = biological target: T2, PLB[1-36 a.a.] (36 amino acid N-terminal fragment of human phospholamban) (Homo sapiens, UniProt P26678); assay: Circular dichroism (CD) spectroscopy, binding to cytosolic part of phospholamban; details: FIG. 2
T2 construct: the pSer16/pThr17 doubly phosphorylated peptide was compared
T2 sequence (P26678 1-36): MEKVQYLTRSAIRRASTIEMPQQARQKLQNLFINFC
Protocol: as §6, §7

[4] = biological target: T3, phospholamban inhibition of SR Ca2+-ATPase in cardiac muscle SR vesicles (Cavia porcellus, UniProt A0A286XLC6); assay: Calcium uptake assay (fluo-3), cardiac SR vesicles; type: biochemical, guinea pig; details: for activation at 100 µM: compound 100 μM
T3 construct: Their hearts or the psoas muscles were excised; from tissue; host or cells: guinea pig heart (ventricular myocardium), SR vesicles
T3 sequence (A0A286XLC6 1-52): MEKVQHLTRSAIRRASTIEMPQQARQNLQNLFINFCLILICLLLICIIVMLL
Protocol: as §1, §2, §3, §4, §5

[5] = system: isolated guinea-pig Langendorff heart; assay: Development of stunned myocardium in isolated Langendorff heart (ischemia-reperfusion); details: 10 μM in perfusion buffer; three 8 min global ischemia periods each followed by reperfusion; FIG. 3B
Protocol: Guinea-pigs of either sex weighing 300-400 g were used in the study. After the guinea-pig was sacrificed by a blow on the skull and decapitated the heart was rapidly excised. The heart was then rinsed in oxygenated perfusion buffer. A cannula was inserted into the aorta and secured with a ligature. Retrograde perfusion began as soon as the heart was placed in a thermostatically controlled moist chamber of the Langendorff apparatus. Modified Tyrode solution (37° C.), equilibrated in a thermostatically controlled bulb oxygenator with carbogen (95% O2 and 5% CO2) was used as a perfusion buffer. The composition of the Tyrode solution was (in mM): NaCl 135; MgCl2 ×6H2 O 1; KCl 5; CaCl2 ×2H2 O 2; NaHCO3 15; Na2 HPO4 ×2H2 O 1; glucose 10; pH 7.3-7.4. The experiments were carried out under constant pressure condition (50 mmHg). After a short prestabilization (10 min) a latex balloon attached through the stainless-steel cannula to a pressure transducer was carefully placed into the left ventricle through the left pulmonary vein and the left atrium. The latex balloon, the cannula and the chamber of the pressure transducer were filled with ethylene glycol/water (1:1) mixture avoiding any air-bubble. The isovolumetric left ventricular pressure was recorded through the pressure transducer. […]

[6] = 0.05 h, 0.04 μM free calcium, read-out: The stimulation (%) of Ca2+ uptake, B (fast skeletal muscle vesicles)
[7] = 0.05 h, 0.1 μM free calcium, read-out: The stimulation (%) of Ca2+ uptake, A (ventricular myocardium vesicles)

SMILES: Cc1c(Cc2ccccc2)c(=O)oc2cc(OCc3noc(=O)[nH]3)cc(OCc3noc(=O)[nH]3)c12 [Example 3c, 3-Benzyl-5,7-bis[(2,5-dihydro-5-oxo-4H -1,2,4-oxadiazol-3-yl)-methoxy]-4-methyl-2H -1-benzopyran-2-one]
activation at 20 µM ([1]; 0.05 h, compound 20 μM, 0.04 μM free calcium, read-out: The stimulation (%) of Ca2+ uptake, B (fast skeletal muscle vesicles)): 0%

SMILES: Cc1c(CCc2ccccc2)c(=O)oc2cc(OCc3nnn[nH]3)cc(OCc3nnn[nH]3)c12 [Example 7c, 5,7-Bis[(1H-tetrazol-5-yl)methoxy]-4-methyl-3-(2-phenylethyl)-2H-1benzopyran-2-one]
activation at 100 µM [1, 6]: -17%
activation at 100 µM [4, 7]: 5%

SMILES: Cc1c(Cc2ccccc2)c(=O)n(Cc2ccccc2)c2cc(OCc3nnn[nH]3)cc(OCc3nnn[nH]3)c12 [Example 8g, 5,7-Bis[(1H-tetrazol-5-yl)methoxy]-1,3-dibenzyl-4-methyl-2(1H)-quinolinone]
Effect on the calcium uptake into the SR vesicle prepared from the fast skeletal muscle ([1]; 0.1-10 μM): did not change the calcium uptake
activation at 10 µM ([1]; 0.05 h, compound 10 μM, 0.04 μM free calcium, read-out: The stimulation (%) of Ca2+ uptake, B (fast skeletal muscle vesicles)): 0%
Effect on the Ca2+ uptake rate into the cardiac muscle SR vesicles ([4]; 0.1, 1.0 and 10 μM, FIG. 1): accelerated the calcium uptake
Development of stunned myocardium (left ventricular systolic pressure) [5]: complete inhibition of the development of stunned myocardium; also recorded: completely inhibited the development of stunned myocardium

SMILES: Cc1c(Cc2ccccc2)c(=O)n(Cc2ccccc2)c2cc(OCC(=O)NO)cc(OCC(=O)NO)c12 [Example 23, 5,7-Bis(hydroxyaminocarbonylmethoxy)-1,3-dibenzyl-4-methyl-2(1H)-quinolinone]
activation at 5 µM ([4]; 0.05 h, compound 5 μM, 0.1 μM free calcium, read-out: The stimulation (%) of Ca2+ uptake, A (ventricular myocardium vesicles)): 20%

Second part, led by results:

activation at 100 µM [1, 6]: -6%
Interaction with phosphorylated PLB[1-36 a.a.](Ser16PO3-, Thr17PO3-) by CD [2]: does not interact or interacts weakly
activation at 100 µM [4, 7]: 42%
SMILES: Cc1c(Cc2ccccc2)c(=O)oc2cc(OCc3nnn[nH]3)cc(OCc3nnn[nH]3)c12 [Example 1c, 3-Benzyl-5,7-bis[(1H -tetrazol-5-yl)methoxy]-4-methyl-2H -1-benzopyran-2-one]
Change in CD spectrum (α-helical contribution) of PLB[1-36 a.a.] after addition of compound ([3]; 50 μM each, water, room temperature): marked increase of α-helical contribution
Interaction (complex formation) with PLB[1-36 a.a.] by CD ([3]; unphosphorylated peptide): forms a complex with PLB; also recorded: interacts with the cytosolic part of phospholamban

activation at 100 µM [1, 6]: -1%
SMILES: O=c1oc2cc(OCc3nnn[nH]3)cc(OCc3nnn[nH]3)c2c2c1C(c1ccccc1)CCC2 (centres unmarked) [Example 2c, 7,8,9,10-Tetrahydro-1,3-bis[(1H -tetrazol-5-yl)methoxy]-7-phenyl-6H-dibenzo[b,d]pyran-6-one]
